Measured values published in the supplement of paper PMC10307832.

Columns and labels:
Experiment in all cases: relative viability (nuclei count vs DMSO), 5 days (fraction); higher = more cells survive
Afatinib + Vorinostat = compound: CN(C)C/C=C/C(=O)Nc1cc2c(Nc3ccc(F)c(Cl)c3)ncnc2cc1O[C@H]1CCOC1 [Afatinib] + O=C(CCCCCCC(=O)Nc1ccccc1)NO [Vorinostat] (partner 1 µM)
Method in brief: (§1)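 Medians of duplicate plates are given as relative viability. That measure is the nuclei count in treated wells divided by the count in vehicle wells. Counts were taken on 4× images of lung cancer cell lines in 1536-well plates, 5 days after pin-tool dosing the day after seeding with one drug alone or a fixed anchor-drug dose plus five library-drug doses (not always all listed) in √10 steps.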

Afatinib + Pemetrexed = compound: CN(C)C/C=C/C(=O)Nc1cc2c(Nc3ccc(F)c(Cl)c3)ncnc2cc1O[C@H]1CCOC1 [Afatinib] + Nc1nc2[nH]cc(CCc3ccc(C(=O)N[C@@H](CCC(=O)O)C(=O)O)cc3)c2c(=O)[nH]1 [Pemetrexed] (partner 0.2 µM)
Method in brief: as §1

Afatinib + Dasatinib = compound: CN(C)C/C=C/C(=O)Nc1cc2c(Nc3ccc(F)c(Cl)c3)ncnc2cc1O[C@H]1CCOC1 [Afatinib] + Cc1nc(Nc2ncc(C(=O)Nc3c(C)cccc3Cl)s2)cc(N2CCN(CCO)CC2)n1 [Dasatinib] (partner 0.075 µM)
Method in brief: as §1

Afatinib + Palbociclib = compound: CN(C)C/C=C/C(=O)Nc1cc2c(Nc3ccc(F)c(Cl)c3)ncnc2cc1O[C@H]1CCOC1 [Afatinib] + CC(=O)c1c(C)c2cnc(Nc3ccc(N4CCNCC4)cn3)nc2n(C2CCCC2)c1=O [Palbociclib] (partner 0.5 µM)
Method in brief: as §1

Row | Cell Line | relative viability (Afatinib + Vorinostat; first compound 0.005 µM) | relative viability (Afatinib + Vorinostat; first compound 0.01581 µM) | relative viability (Afatinib + Vorinostat; first compound 0.05 µM) | relative viability (Afatinib + Vorinostat; first compound 0.1581 µM) | relative viability (Afatinib + Vorinostat; first compound 0.5 µM) | relative viability (Afatinib + Pemetrexed; first compound 0.005 µM) | relative viability (Afatinib + Pemetrexed; first compound 0.01581 µM) | relative viability (Afatinib + Pemetrexed; first compound 0.05 µM) | relative viability (Afatinib + Pemetrexed; first compound 0.1581 µM) | relative viability (Afatinib + Pemetrexed; first compound 0.5 µM) | relative viability (Afatinib + Dasatinib; first compound 0.005 µM) | relative viability (Afatinib + Dasatinib; first compound 0.01581 µM) | relative viability (Afatinib + Dasatinib; first compound 0.05 µM) | relative viability (Afatinib + Dasatinib; first compound 0.1581 µM) | relative viability (Afatinib + Dasatinib; first compound 0.5 µM) | relative viability (Afatinib + Palbociclib; first compound 0.005 µM) | relative viability (Afatinib + Palbociclib; first compound 0.01581 µM) | relative viability (Afatinib + Palbociclib; first compound 0.05 µM) | relative viability (Afatinib + Palbociclib; first compound 0.1581 µM) | relative viability (Afatinib + Palbociclib; first compound 0.5 µM)
1 | NCI-H441 | 0.791 | 0.94 | 0.737 | 0.878 | 0.698 | 0.255 | 0.246 | 0.25 | 0.283 | 0.274 | 0.574 | 0.488 | 0.573 | 0.435 | 0.402 | 0.234 | 0.231 | 0.163 | 0.183 | 0.207
2 | NCI-H460 | 0.892 | 0.767 | 0.722 | 0.702 | 0.686 | 0.0534 | 0.0601 | 0.0633 | 0.0503 | 0.0638 | 0.531 | 0.527 | 0.469 | 0.467 | 0.535 | 0.165 | 0.175 | 0.237 | 0.184 | 0.242
3 | NCI-H520 | 0.807 | 0.707 | 0.639 | 0.698 | 0.717 | 0.771 | 0.717 | 0.749 | 0.725 | 0.668 | 0.199 | 0.178 | 0.19 | 0.225 | 0.14 | 0.245 | 0.241 | 0.229 | 0.219 | 0.229
4 | NCI-H522 | 0.865 | 0.928 | 0.829 | 0.7 | 0.721 | 0.928 | 0.889 | 0.916 | 0.666 | 0.807 | 0.877 | 0.992 | 0.712 | 0.733 | 0.692 | 1 | 1.05 | 1.15 | 0.881 | 0.675
5 | NCI-H647 | 0.493 | 0.513 | 0.595 | 0.523 | 0.524 | 0.174 | 0.169 | 0.179 | 0.188 | 0.107 | 0.24 | 0.141 | 0.201 | 0.192 | 0.172 | 0.37 | 0.335 | 0.385 | 0.368 | 0.312
6 | NCI-H650 | 0.469 | 0.395 | 0.551 | 0.515 | 0.316 | 0.922 | 0.849 | 0.951 | 0.854 | 0.87 | 0.559 | 0.428 | 0.481 | 0.599 | 0.411 | 0.343 | 0.34 | 0.395 | 0.331 | 0.336
7 | NCI-H661 | 0.867 | 0.738 | 0.755 | 0.64 | 0.63 | 0.956 | 0.861 | 0.809 | 0.616 | 0.688 | 0.858 | 0.527 | 0.375 | 0.341 | 0.332 | 0.387 | 0.339 | 0.347 | 0.34 | 0.337
8 | NCI-H838 | 0.695 | 0.74 | 0.74 | 0.639 | 0.801 | 0.246 | 0.243 | 0.259 | 0.243 | 0.259 | 0.33 | 0.319 | 0.331 | 0.203 | 0.269 | 0.216 | 0.227 | 0.242 | 0.214 | 0.233
9 | NCI-H1355 | 0.597 | 0.585 | 0.545 | 0.553 | 0.552 | 1.07 | 1.01 | 0.946 | 0.906 | 0.974 | 0.665 | 0.742 | 0.68 | 0.642 | 0.643 | 0.397 | 0.338 | 0.351 | 0.274 | 0.315
10 | NCI-H1395 | 0.857 | 0.571 | 0.674 | 0.711 | 0.5 | 0.951 | 0.811 | 0.827 | 0.92 | 0.752 | 0.453 | 0.408 | 0.415 | 0.404 | 0.376 | 0.592 | 0.572 | 0.625 | 0.591 | 0.606
11 | NCI-H1437 | 0.841 | 0.831 | 0.967 | 0.776 | 0.908 | 0.32 | 0.298 | 0.339 | 0.324 | 0.283 | 0.464 | 0.408 | 0.403 | 0.372 | 0.352 | 0.305 | 0.294 | 0.281 | 0.31 | 0.341
12 | NCI-H1650 | 0.462 | 0.424 | 0.599 | 0.472 | 0.432 | 0.31 | 0.291 | 0.344 | 0.284 | 0.3 | 0.295 |  | 0.307 | 0.264 | 0.28 | 0.299 | 0.257 | 0.305 | 0.347 | 0.269
13 | NCI-H1651 | 0.628 | 0.521 | 0.512 | 0.575 | 0.539 | 0.553 | 0.539 | 0.57 | 0.569 | 0.54 | 0.483 | 0.426 | 0.407 | 0.386 | 0.381 | 0.561 | 0.508 | 0.501 | 0.495 | 0.459
14 | NCI-H1666 | 1 | 1.03 | 1.03 | 0.811 | 0.712 | 0.85 | 0.768 | 0.843 | 0.704 | 0.69 | 0.784 | 0.772 | 0.672 | 0.672 | 0.776 | 0.656 | 0.617 | 0.645 | 0.673 | 0.688
15 | NCI-H1734 | 0.795 | 0.826 | 0.874 | 0.779 | 0.831 | 0.411 | 0.374 | 0.406 | 0.375 | 0.453 | 0.482 | 0.386 | 0.497 | 0.491 | 0.444 | 0.369 | 0.34 | 0.298 | 0.339 | 0.319
16 | NCI-H1755 | 0.9 | 0.935 | 0.789 | 0.79 | 0.727 | 0.405 | 0.611 | 0.463 | 0.402 | 0.421 | 0.483 | 0.424 | 0.435 | 0.393 | 0.399 | 0.463 | 0.438 | 0.441 | 0.456 | 0.433
